Tested on: 935938-334-R-J1-PDC spheroids with HUVEC/MSC, viability
Assay: Anticancer human tumor 935938-334-R-J1-PDC patient-derived small intestine adenocarcinoma cell line growth inhibition [PI3K]
Conditions: for IC50: curve of first compound; for viability, T/C: stronger effect = lower value; active = viability on the fitted dose curve at most 10% of control; inactive = the rest
Method in brief: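 We assembled tumor spheroids that included a stromal compartment of HUVEC and MSCs, then exposed them to targeted agents alone and together with PI3K pathway inhibitors. Concentration series descended by half-log from clinically achievable Cmax levels. Viability served as the endpoint.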

[1] = second compound 0.00316 µM, first compound 0.0316 µM
[2] = second compound 0.00316 µM, first compound 0.1 µM
[3] = second compound 0.00316 µM, first compound 0.316 µM
[4] = second compound 0.00316 µM, first compound 1 µM
[5] = second compound 0.00316 µM, first compound 3.16 µM
[6] = second compound 0.00316 µM, first compound 10 µM
[7] = second compound 0.01 µM, first compound 0.0316 µM
[8] = second compound 0.01 µM, first compound 0.1 µM
[9] = second compound 0.01 µM, first compound 0.316 µM
[10] = second compound 0.01 µM, first compound 1 µM
[11] = second compound 0.01 µM, first compound 3.16 µM
[12] = second compound 0.01 µM, first compound 10 µM
[13] = second compound 0.0316 µM, first compound 0.0316 µM
[14] = second compound 0.0316 µM, first compound 0.1 µM
[15] = second compound 0.0316 µM, first compound 0.316 µM
[16] = second compound 0.0316 µM, first compound 1 µM
[17] = second compound 0.0316 µM, first compound 3.16 µM
[18] = second compound 0.0316 µM, first compound 10 µM
[19] = second compound 0.1 µM, first compound 0.0316 µM
[20] = second compound 0.1 µM, first compound 0.1 µM
[21] = second compound 0.1 µM, first compound 0.316 µM
[22] = second compound 0.1 µM, first compound 1 µM
[23] = second compound 0.1 µM, first compound 3.16 µM
[24] = second compound 0.1 µM, first compound 10 µM
[25] = second compound 0.316 µM, first compound 0.0316 µM
[26] = second compound 0.316 µM, first compound 0.1 µM
[27] = second compound 0.316 µM, first compound 0.316 µM
[28] = second compound 0.316 µM, first compound 1 µM
[29] = second compound 0.316 µM, first compound 3.16 µM
[30] = second compound 0.316 µM, first compound 10 µM
[31] = second compound 1 µM, first compound 0.0316 µM
[32] = second compound 1 µM, first compound 0.1 µM
[33] = second compound 1 µM, first compound 0.316 µM
[34] = second compound 1 µM, first compound 1 µM
[35] = second compound 1 µM, first compound 3.16 µM
[36] = second compound 1 µM, first compound 10 µM
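Note: compound exposure lasted seven days before viability was read.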
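Throughout, for viability, T/C: percent of vehicle DMSO treated spheroid viability so 100% = untreated.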

C=CC(=O)N1CCN(c2nc(=O)n(-c3c(C)ccnc3C(C)C)c3nc(-c4c(O)cccc4F)c(F)cc23)C(C)C1 (stereo not given) + COc1c(OCCCN2CCOCC2)ccc2c3n(c(=NC(=O)c4cnc(N)nc4)nc12)CCN3
> 10000 nM: IC50 (second compound 0.00316 µM) | IC50 (second compound 0.01 µM) | IC50 (second compound 0.0316 µM)
2400 nM: IC50 (second compound 0.1 µM)
inactive: viability, T/C [1] 94% | viability, T/C [2] 108% | viability, T/C [3] 93.9% | viability, T/C [4] 91% | viability, T/C [5] 104% | viability, T/C [6] 109% | viability, T/C [7] 100% | viability, T/C [8] 96% | viability, T/C [9] 92.5% | viability, T/C [10] 94.9% | viability, T/C [11] 102% | viability, T/C [12] 93.2% | viability, T/C [13] 93.1% | viability, T/C [14] 83.5% | viability, T/C [15] 86.7% | viability, T/C [16] 71.7% | viability, T/C [17] 82.7% | viability, T/C [18] 65.9% | viability, T/C [19] 56.9% | viability, T/C [20] 47.5% | viability, T/C [21] 61.2% | viability, T/C [22] 49.3% | viability, T/C [23] 67% | viability, T/C [24] 33% | viability, T/C [25] 32.7% | viability, T/C [26] 31.7% | viability, T/C [27] 34.5% | viability, T/C [28] 34.7% | viability, T/C [29] 28.1% | viability, T/C [30] 32.9% | viability, T/C [31] 29.3% | viability, T/C [32] 38.8% | viability, T/C [33] 38.5% | viability, T/C [34] 33% | viability, T/C [35] 32.5% | viability, T/C [36] 44.1%
< 31.6 nM: IC50 (second compound 0.316 µM) | IC50 (second compound 1 µM)

CC(C)NCC(C(=O)N1CCN(c2ncnc3c2C(C)CC3O)CC1)c1ccc(Cl)cc1 (stereo not given) + COc1c(OCCCN2CCOCC2)ccc2c3n(c(=NC(=O)c4cnc(N)nc4)nc12)CCN3
5660 nM: IC50 (second compound 0.00316 µM)
1310 nM: IC50 (second compound 0.0316 µM)
< 31.6 nM: IC50 (second compound 0.1 µM) | IC50 (second compound 0.316 µM) | IC50 (second compound 1 µM)
inactive: viability, T/C [1] 94.5% | viability, T/C [2] 99% | viability, T/C [3] 84.8% | viability, T/C [4] 65.5% | viability, T/C [5] 62.5% | viability, T/C [6] 41.5% | viability, T/C [7] 85.5% | viability, T/C [8] 106% | viability, T/C [9] 82% | viability, T/C [10] 61.1% | viability, T/C [11] 54.5% | viability, T/C [12] 39.8% | viability, T/C [13] 84.2% | viability, T/C [14] 67.4% | viability, T/C [15] 68% | viability, T/C [16] 48.5% | viability, T/C [17] 45.5% | viability, T/C [18] 29.5% | viability, T/C [19] 48.3% | viability, T/C [20] 49.4% | viability, T/C [21] 39.3% | viability, T/C [22] 44.3% | viability, T/C [23] 40.8% | viability, T/C [24] 30.4% | viability, T/C [25] 30.6% | viability, T/C [26] 40.4% | viability, T/C [27] 29.8% | viability, T/C [28] 33.7% | viability, T/C [29] 26.7% | viability, T/C [30] 30.3% | viability, T/C [31] 36.6% | viability, T/C [32] 34.7% | viability, T/C [33] 37% | viability, T/C [34] 34.2% | viability, T/C [35] 30.1% | viability, T/C [36] 33.2%
2730 nM: IC50 (second compound 0.01 µM)

CCN1CCN(Cc2ccc(Nc3ncc(F)c(-c4cc(F)c5nc(C)n(C(C)C)c5c4)n3)nc2)CC1 + COc1c(OCCCN2CCOCC2)ccc2c3n(c(=NC(=O)c4cnc(N)nc4)nc12)CCN3
< 3.16 nM: IC50 (second compound 0.1 µM) | IC50 (second compound 0.316 µM) | IC50 (second compound 1 µM)
582 nM: IC50 (second compound 0.01 µM)
296 nM: IC50 (second compound 0.00316 µM)
91.8 nM: IC50 (second compound 0.0316 µM)
inactive: viability, T/C (second compound 0.00316 µM, first compound 0.00316 µM) 80.1% | viability, T/C (second compound 0.00316 µM, first compound 0.01 µM) 93.5% | viability, T/C [1] 89.8% | viability, T/C [2] 72% | viability, T/C [3] 49.9% | viability, T/C [4] 43.5% | viability, T/C (second compound 0.01 µM, first compound 0.00316 µM) 97.4% | viability, T/C (second compound 0.01 µM, first compound 0.01 µM) 74% | viability, T/C [7] 68.6% | viability, T/C [8] 60.4% | viability, T/C [9] 51.8% | viability, T/C [10] 47.1% | viability, T/C (second compound 0.0316 µM, first compound 0.00316 µM) 66.5% | viability, T/C (second compound 0.0316 µM, first compound 0.01 µM) 66.1% | viability, T/C [13] 60.8% | viability, T/C [14] 47.8% | viability, T/C [15] 38.8% | viability, T/C [16] 30.3% | viability, T/C (second compound 0.1 µM, first compound 0.00316 µM) 45.9% | viability, T/C (second compound 0.1 µM, first compound 0.01 µM) 40.7% | viability, T/C [19] 37% | viability, T/C [20] 37.7% | viability, T/C [21] 29.6% | viability, T/C [22] 28.4% | viability, T/C (second compound 0.316 µM, first compound 0.00316 µM) 36.2% | viability, T/C (second compound 0.316 µM, first compound 0.01 µM) 33.8% | viability, T/C [25] 27.1% | viability, T/C [26] 29.6% | viability, T/C [27] 33.1% | viability, T/C [28] 30.8% | viability, T/C (second compound 1 µM, first compound 0.00316 µM) 32.6% | viability, T/C (second compound 1 µM, first compound 0.01 µM) 35% | viability, T/C [31] 35.6% | viability, T/C [32] 28.5% | viability, T/C [33] 32.7% | viability, T/C [34] 28.6%

Cn1ncc(Cl)c1-c1cc(C(=O)NC(CN)Cc2cccc(F)c2)sc1Cl (stereo not given) + COc1c(OCCCN2CCOCC2)ccc2c3n(c(=NC(=O)c4cnc(N)nc4)nc12)CCN3
57.2 nM: IC50 (second compound 0.1 µM)
inactive: viability, T/C [1] 103% | viability, T/C [2] 114% | viability, T/C [3] 60.6% | viability, T/C [4] 63.7% | viability, T/C [5] 49.3% | viability, T/C [6] 32.8% | viability, T/C [7] 78.7% | viability, T/C [8] 86.6% | viability, T/C [9] 65.5% | viability, T/C [10] 50.9% | viability, T/C [11] 41.1% | viability, T/C [12] 28.5% | viability, T/C [13] 70.7% | viability, T/C [14] 71.3% | viability, T/C [15] 68% | viability, T/C [16] 50.4% | viability, T/C [17] 30.6% | viability, T/C [18] 25% | viability, T/C [19] 55% | viability, T/C [20] 43% | viability, T/C [21] 41.7% | viability, T/C [22] 37.8% | viability, T/C [23] 25.3% | viability, T/C [24] 27% | viability, T/C [25] 35.5% | viability, T/C [26] 30.2% | viability, T/C [27] 30.9% | viability, T/C [28] 28.6% | viability, T/C [29] 26.8% | viability, T/C [30] 20.9% | viability, T/C [31] 33.5% | viability, T/C [32] 26.9% | viability, T/C [33] 34.2% | viability, T/C [34] 34.5% | viability, T/C [35] 32.6% | viability, T/C [36] 21.6%
< 31.6 nM: IC50 (second compound 0.316 µM) | IC50 (second compound 1 µM)
1180 nM: IC50 (second compound 0.01 µM)
1680 nM: IC50 (second compound 0.00316 µM)
1040 nM: IC50 (second compound 0.0316 µM)

Cn1nccc1Nc1nccc(-c2ccn(C(CO)c3ccc(Cl)c(F)c3)c(=O)c2)n1 (stereo not given) + COc1c(OCCCN2CCOCC2)ccc2c3n(c(=NC(=O)c4cnc(N)nc4)nc12)CCN3
1500 nM: IC50 (second compound 0.01 µM)
< 31.6 nM: IC50 (second compound 0.1 µM) | IC50 (second compound 0.316 µM) | IC50 (second compound 1 µM)
566 nM: IC50 (second compound 0.0316 µM)
inactive: viability, T/C [1] 81.5% | viability, T/C [2] 99.5% | viability, T/C [3] 54.7% | viability, T/C [4] 58.4% | viability, T/C [5] 41.4% | viability, T/C [6] 25.2% | viability, T/C [7] 85.7% | viability, T/C [8] 77.8% | viability, T/C [9] 68.9% | viability, T/C [10] 55.6% | viability, T/C [11] 39.9% | viability, T/C [12] 28% | viability, T/C [13] 58.8% | viability, T/C [14] 76.7% | viability, T/C [15] 49.2% | viability, T/C [16] 46.1% | viability, T/C [17] 33.5% | viability, T/C [18] 28% | viability, T/C [19] 49.4% | viability, T/C [20] 39.6% | viability, T/C [21] 40.1% | viability, T/C [22] 28% | viability, T/C [23] 18.1% | viability, T/C [24] 20.6% | viability, T/C [25] 36.4% | viability, T/C [26] 32% | viability, T/C [27] 22.3% | viability, T/C [28] 22.4% | viability, T/C [29] 21.7% | viability, T/C [30] 23% | viability, T/C [31] 34.6% | viability, T/C [32] 27% | viability, T/C [33] 25.1% | viability, T/C [34] 23.9% | viability, T/C [35] 19.5% | viability, T/C [36] 17.9%
1380 nM: IC50 (second compound 0.00316 µM)
